These results are taken from US20220041583A1, “IMMUNOMODULATORS, COMPOSITIONS AND METHODS THERE OF” (BETTA PHARMACEUTICALS CO., LTD, priority 2018, published 2022).

One data set addresses T1, PD-1/PD-L1 (Homo sapiens, UniProt Q9NZQ7).
T1 construct: Recombinant human PD-L1 protein (19-238) with a His-tag at the C-terminus; purchased AcroBiosystems PD1-H5229 (PD-L1); PD1-H5257 (PD-1)
As to the kind of experiment: PD-1/PD-L1 homogenous time-resolved fluorescence (HTRF) binding assay. As to the method: Resolved Fluorescence (HTRF) Binding Assay
The assays were conducted in a standard black 384-well polystyrene plate with a final volume of 20 μL. Inhibitors were first serially diluted in DMSO and then added to the plate wells before the addition of other reaction components. The final concentration of DMSO in the assay was 1%. The assays were carried out at 25° C. in the PBS buffer (pH 7.4) with 0.05% Tween-20 and 0.1% BSA. Recombinant human PD-L1 protein (19-238) with a His-tag at the C-terminus was purchased from AcroBiosy stems (PD1-H5229). Recombinant human PD-1 protein (25-167) with Fc tag at the C-terminus was also purchased from AcroBiosystems (PD1-H5257). PD-L1 and PD-1 proteins were diluted in the assay buffer and 10 μL was added to the plate well. Plates were centrifuged and proteins were preincubated with inhibitors for 40 min. The incubation was followed by the addition of 10 μL of HTRF detection buffer supplemented with Europium cryptate-labeled anti-human IgG (PerkinElmer-AD0212) specific for Fc and anti-His antibody conjugated to SureLight®-Allophycocyanin (APC, PerkinElmer-AD0059H). After centrifugation, the plate was incubated at 25° C. for 60 min. Before reading on a PHERAstar FS plate reader (665 nm/620 nm ratio). Final concentrations in the assay were […] PD1, 10 nM PD-L1, 1 nM europium anti-human IgG and 20 nM anti-His-Allophycocyanin. IC50 determination was performed by fitting the curve of percent control activity versus the log of the inhibitor concentration using the GraphPad Prism 5.0 software.

A short description of the next data set: Pharmacokinetic Assay. The data set is classed as in vivo. The note with it: rat; male rats, single oral (intragastric) dose 25 mg/kg, plasma. How it is done: Healthy adult male rats were subjected to single-dose of the test compounds with 10% DMSO, 10% Kolliphor® HS 15 and 80% Saline as excipients, and the rats were giving oral administration (intragastric administration) with the compounds at a dose of 25 mg/kg, Before the experiment, the animals were fasted overnight, and the fasting time last from 12 hrs prior to the administration to 4 hrs after the administration. Time of blood collection: 15 min, 30 min, 1 h, 2 h, 4 h, 7 h, 24 h. Approximately 0.3 mL of whole blood was collected from retro-orbital venous sinus, and placed into tubes that contained EDTA as an anticoagulant. The samples were centrifuged at 4° C. and 4000 rpm for 5 min. The plasma was transferred into centrifuge tubes, and stored at −20° C. till being analyzed. Concentrations of test compounds in the plasma samples were analyzed with liquid chromatography-tandem mass spectrometry (LC-MS/MS). Plasma concentration-time data of individual animals was analyzed using WinNonlin (version 4.1; Pharsight) software. Non-compartmental model was introduced in concentration analysis. The pharmacokinetic parameters of the test compounds were calculated.

The structures appear in SMILES notation.

T1 sequence (Q9NZQ7 19-238): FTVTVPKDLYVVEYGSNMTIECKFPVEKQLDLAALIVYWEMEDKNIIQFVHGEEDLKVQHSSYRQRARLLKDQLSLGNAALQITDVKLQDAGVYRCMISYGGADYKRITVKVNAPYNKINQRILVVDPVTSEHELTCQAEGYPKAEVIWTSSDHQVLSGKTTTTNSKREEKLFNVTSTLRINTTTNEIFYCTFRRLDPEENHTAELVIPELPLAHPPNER

The IC50 is the midpoint of a concentration-inhibition curve. Read a low IC50 as greater potency in that assay. For orientation: AUC means concentration integrated over time. A low value points to low exposure. As usually defined, the Cmax is the highest concentration seen after dosing. One may read the Tmax as the time at which the peak concentration occurs. One may read the half-life as the time needed for the level to fall by half in the phase considered. Read a high half-life as slow decline. With `Cc1c(-c2ccccc2)cccc1-c1nc2cc(CN3CCCC[C@H]3C(=O)O)c(OC(F)F)cc2o1` [Example 29, (S)-1-((6-(difluoromethoxy)-2-(2-methyl-[1,1′-biphenyl]-3-yl)benzo[d]oxazol-5-yl)methyl)piperidine-2-carboxylic acid], on PD-1/PD-L1 (Table 6, class symbols), the IC50 is 0.1 to 10 nM. Also, in “Pharmacokinetic Assay”, the AUC is 201 µg·h/mL, the highest level (Cmax) was 23300 ng/mL, the Tmax amounted to 1 h and the half-life was 4.27 h.

On PD-1/PD-L1 (Table 6, numeric values), `Cc1cc2oc(-c3cccc(-c4ccccc4)c3C)nc2cc1CN1CCCC[C@H]1C(=O)O` [Example 22, (S)-1-((6-methyl-2-(2-methyl-[1,1′-biphenyl]-3-yl)benzo[d]oxazol-5-yl)methyl)piperidine-2-carboxylic acid] showed an IC50 of 1.8 nM. Moreover, in the data set “Pharmacokinetic Assay”, the AUC amounted to 151 µg·h/mL, the Cmax came out at 10300 ng/mL, the Tmax was 1 h and the half-life was 42.3 h.

For the molecule `Cc1c(-c2ccccc2)cccc1-c1nc2cc(CN3CCCC[C@H]3C(=O)O)c(OCC#N)cc2o1` [Com. EX. No. 1, 1-((6-(cyanomethoxy)-2-(2-methyl-[1,1′-biphenyl]-3-yl)benzo[d]oxazol-5-yl)methyl)piperidine-2-carboxylic acid, reference compound], in “Pharmacokinetic Assay”, the exposure (AUC) was determined as 5.84 µg·h/mL, the Cmax came out at 881 ng/mL, the time of peak concentration (Tmax) is 0.5 h and the half-life is 3.42 h.

For the molecule `Cc1c(-c2ccccc2)cccc1-c1nc2cc(CN3CCC[C@H]3C(=O)O)c(C(F)(F)F)cc2o1` [Example 28, ((2-(2-methyl-[1,1′-biphenyl]-3-yl)-6-(trifluoromethyl)benzo[d]oxazol-5-yl)methyl)-L-proline], the IC50 on PD-1/PD-L1 (Table 6, numeric values) was 1.4 nM. In addition, in the data set “Pharmacokinetic Assay”, the AUC came out at 319 µg·h/mL, the highest level (Cmax) was 14400 ng/mL, the Tmax was 0.3 h and the half-life is 41.2 h.

For `Cc1c(-c2ccccc2)cccc1-c1nc2cc(CN3CCC[C@H]3C(=O)O)c(Cl)cc2o1` [Example 20, ((6-chloro-2-(2-methyl-[1,1′-biphenyl]-3-yl)benzo[d]oxazol-5-yl)methyl)-L-proline], the IC50 on PD-1/PD-L1 (Table 6, numeric values) was 1.8 nM. In addition, in the data set “Pharmacokinetic Assay”, the AUC came out at 74.5 µg·h/mL, the concentration peaked (Cmax) at 8270 ng/mL, the Tmax was 1 h and the half-life is 7.52 h.

At PD-1/PD-L1 (Table 6, class symbols), `CSc1cc2oc(-c3cccc(-c4ccccc4)c3C)nc2cc1CN1CCC[C@H]1C(=O)O` [Example 2, ((2-(2-methyl-[1,1′-biphenyl]-3-yl)-6-(methylthio)benzo[d]oxazol-5-yl)methyl)-L-proline] registered an IC50 of 0.1 to 10 nM. Besides, in the data set “Pharmacokinetic Assay”, the area under the curve (AUC) came out at 125 µg·h/mL, the Cmax amounted to 12200 ng/mL, the Tmax was 1 h and the half-life was 17.7 h.

In turn, `Cc1c(-c2ccccc2)cccc1-c1nc2cc(CN3CCC[C@H]3C(=O)O)c(OC(F)F)cc2o1` [Example 36, ((6-(difluoromethoxy)-2-(2-methyl-[1,1′-biphenyl]-3-yl)benzo[d]oxazol-5-yl)methyl)-L-proline] had an IC50 on PD-1/PD-L1 (Table 6, class symbols) of 0.1 to 10 nM. In addition, in “Pharmacokinetic Assay”, the AUC came out at 119 µg·h/mL, the concentration peaked (Cmax) at 10200 ng/mL, the Tmax was found to be 0.5 h and the half-life is 9.3 h.

Take `COc1cc2oc(-c3cccc(-c4ccccc4)c3C)nc2cc1CNCCO` [Com. EX. No. 2, 2-(((6-methoxy-2-(2-methyl-[1,1′-biphenyl]-3-yl)benzo[d]oxazol-5-yl)methyl)amino)ethan-1-ol, reference compound]: in “Pharmacokinetic Assay”, the AUC was determined as 5.15 µg·h/mL, the Cmax was found to be 329 ng/mL, the Tmax came out at 4 h and the half-life is 14.4 h.

On PD-1/PD-L1 (Table 6, numeric values), `Cc1c(-c2ccccc2)cccc1-c1nc2cc(CN3CCOC[C@H]3C(=O)O)c(OC(F)F)cc2o1` [Example 39, (S)-4-((6-(difluoromethoxy)-2-(2-methyl-[1,1′-biphenyl]-3-yl)benzo[d]oxazol-5-yl)methyl)morpholine-3-carboxylic acid] came in with an IC50 of 1.1 nM. In “Pharmacokinetic Assay”, the AUC was 121 µg·h/mL, the Cmax came to 31000 ng/mL, the Tmax turned out to be 1 h and the half-life was 10.8 h.

`Cc1c(-c2nc3cc(CN4CCC[C@H]4C(=O)O)c(OC(F)F)cc3o2)cccc1-c1ccccc1F` [Example 52, ((6-(difluoromethoxy)-2-(2′-fluoro-2-methyl-[1,1′-biphenyl]-3-yl)benzo[d]oxazol-5-yl)methyl)-L-proline]: the IC50 on PD-1/PD-L1 (Table 6, class symbols) lay within 10 to 100 nM. Further, in the data set “Pharmacokinetic Assay”, the AUC was found to be 246 µg·h/mL, the Cmax came out at 20700 ng/mL, the Tmax was determined as 2 h and the half-life was 7.72 h.

For the molecule `Cc1c(-c2ccccc2)cccc1-c1nc2cc(CN3CCCCC3C(=O)O)c3c(c2o1)C(=O)CO3` (stereo not shown) [Example 73, 1-((2-(2-methyl-[1,1′-biphenyl]-3-yl)-8-oxo-7,8-dihydrobenzofuro[5,4-d]oxazol-5-yl)methyl)piperidine-2-carboxylic acid], the IC50 on PD-1/PD-L1 (Table 6, class symbols) is 100 to 1000 nM.

Take `CSc1cc2oc(-c3cccc(-c4ccccc4)c3C)nc2cc1CN[C@@H](CO)C(=O)O` [Example 13, ((2-(2-methyl-[1,1′-biphenyl]-3-yl)-6-(methylthio)benzo[d]oxazol-5-yl)methyl)-L-serine]: the half-maximal inhibitory concentration (IC50) at PD-1/PD-L1 (Table 6, class symbols) fell in the range of 0.1 to 10 nM.

On PD-1/PD-L1 (Table 6, class symbols), `Cc1c(-c2ccccc2)cccc1-c1nc2cc(CN3CCC[C@H]3C(=O)O)c(OC(F)(F)F)cc2o1` [Example 63, ((2-(2-methyl-[1,1′-biphenyl]-3-yl)-6-(trifluoromethoxy)benzo[d]oxazol-5-yl)methyl)-L-proline] registered an IC50 of 0.1 to 10 nM.

At PD-1/PD-L1 (Table 6, numeric values), `Cc1c(-c2ccccc2)cccc1-c1nc2cc(CN[C@H](CO)C(=O)O)c(OC(F)F)cc2o1` [Example 42, ((6-(difluoromethoxy)-2-(2-methyl-[1,1′-biphenyl]-3-yl)benzo[d]oxazol-5-yl)methyl)-D-serine] gave an IC50 of 3.4 nM. This counts as single-digit nanomolar.
